Laboratory results reported in PubChem BioAssay AID248 (DTP/NCI, 2004).
Several values for one entry are separate records, joined by “and”; a condition that tells them apart may be missing. Equal entries are not always repeated. Toxic doses and inconclusive results are not listed.

System: L1210 leukemia ip in BDF1 mice, survival T/C
Experiment: NCI In Vivo Anticancer Drug Screen. Data for tumor model L1210 Leukemia (intraperitoneal) in B6D2F1 (BDF1) mice
Settings: endpoint: mean survival time, higher = longer survival
Procedure, shortened: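 Tumor was transplanted into mice, which were then dosed with test compound or vehicle alone. Survival was recorded for each group, and the treated figure was expressed relative to the control figure.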

[1] = dose: 100.0 mg/kg/injection, schedule: Q01DX009 (ip), vehicle: Klucel (hydroxypropylcellulose) (HPC)
[2] = dose: 200.0 mg/kg/injection, schedule: Q01DX009 (ip), vehicle: Klucel (hydroxypropylcellulose) (HPC)
[3] = dose: 400.0 mg/kg/injection, schedule: Q01DX009 (ip), vehicle: Klucel (hydroxypropylcellulose) (HPC)
[4] = dose: 50.0 mg/kg/injection, schedule: Q01DX009 (ip), vehicle: Klucel (hydroxypropylcellulose) (HPC)
[5] = dose: 100.0 mg/kg/injection, schedule: Q04DX003 (ip), vehicle: Klucel (hydroxypropylcellulose) (HPC)
[6] = dose: 200.0 mg/kg/injection, schedule: Q04DX003 (ip), vehicle: Klucel (hydroxypropylcellulose) (HPC)
[7] = dose: 50.0 mg/kg/injection, schedule: Q01DX001 (ip), vehicle: carboxymethylcellulose (CMC)
[8] = dose: 100.0 mg/kg/injection, schedule: Q01DX001 (ip), vehicle: carboxymethylcellulose (CMC)
[9] = dose: 200.0 mg/kg/injection, schedule: Q01DX001 (ip), vehicle: carboxymethylcellulose (CMC)
[10] = dose: 400.0 mg/kg/injection, schedule: Q01DX001 (ip), vehicle: carboxymethylcellulose (CMC)
[11] = dose: 100.0 mg/kg/injection, schedule: Q01DX001 (ip), vehicle: saline
[12] = dose: 200.0 mg/kg/injection, schedule: Q01DX001 (ip), vehicle: saline

`OCC(O)C(O)C(O)CN=Cc1ccccc1O` (stereo unspecified) was tested, and the T/C (dose: 75.0 mg/kg/injection, schedule: Q04DX002 (ip), vehicle: saline with Tween-80) was 106 % of control, the T/C (dose: 150.0 mg/kg/injection, schedule: Q04DX002 (ip), vehicle: saline with Tween-80) was 98 % of control and the T/C (dose: 300.0 mg/kg/injection, schedule: Q04DX002 (ip), vehicle: saline with Tween-80) was 109 % of control.

In the case of `Cc1ccc(NC(=O)Oc2cccc(C)c2C)cc1NC(=O)Oc1cccc(C)c1C`, the T/C [1] is reported as 96 % of control, the T/C [2] is reported as 94 % of control and the T/C [3] is reported as 93 % of control.

For `CC(NC(=O)NCCCl)c1ccco1` (stereo unspecified), the T/C (dose: 6.25 mg/kg/injection, schedule: Q01DX009 (ip), vehicle: Klucel (hydroxypropylcellulose) (HPC)) was 104 % of control, the T/C (dose: 12.5 mg/kg/injection, schedule: Q01DX009 (ip), vehicle: Klucel (hydroxypropylcellulose) (HPC)) was 98 % of control and the T/C (dose: 25.0 mg/kg/injection, schedule: Q01DX009 (ip), vehicle: Klucel (hydroxypropylcellulose) (HPC)) was 109 % of control. The T/C [4] was 114 % of control, the T/C [1] was 106 % of control and the T/C [5] was 101 % of control. For the same molecule, the T/C [6] was 93 % of control.

In the case of `CC12CC3CC1C2C3OC=O` (stereo unspecified), the T/C [7] is reported as 90 % of control, the T/C [8] is reported as 95 % of control and the T/C [9] is reported as 95 % of control. The T/C [10] was 101 % of control.

For `O=NN(CCCl)C(=O)NC1CCC(CC(=O)O)CC1` (stereo unspecified), the T/C (dose: 3.5 mg/kg/injection, schedule: Q01DX001 (ip), vehicle: Klucel (hydroxypropylcellulose) (HPC)) was 114 % of control, the T/C (dose: 5.3 mg/kg/injection, schedule: Q01DX001 (ip), vehicle: Klucel (hydroxypropylcellulose) (HPC)) was 171 % of control and the T/C (dose: 12.0 mg/kg/injection, schedule: Q01DX001 (ip), vehicle: Klucel (hydroxypropylcellulose) (HPC)) was 235 % of control and 536 % of control. The T/C (dose: 15.0 mg/kg/injection, schedule: Q01DX001 (ip), vehicle: carboxymethylcellulose (CMC)) was 151 % of control and 178 % of control, the T/C (dose: 18.0 mg/kg/injection, schedule: Q01DX001 (ip), vehicle: Klucel (hydroxypropylcellulose) (HPC)) was 352 % of control and 377 % of control and the T/C (dose: 18.0 mg/kg/injection, schedule: Q01DX001 (ip), vehicle: carboxymethylcellulose (CMC)) was 403 % of control. For the same molecule, the T/C (dose: 23.0 mg/kg/injection, schedule: Q01DX001 (ip), vehicle: carboxymethylcellulose (CMC)) was 336 % of control and 351 % of control, the T/C (dose: 26.0 mg/kg/injection, schedule: Q01DX001 (ip), vehicle: Klucel (hydroxypropylcellulose) (HPC)) was 352 % of control and 439 % of control and the T/C (dose: 26.0 mg/kg/injection, schedule: Q01DX001 (ip), vehicle: carboxymethylcellulose (CMC)) was 454 % of control. For the same molecule, the T/C (dose: 34.0 mg/kg/injection, schedule: Q01DX001 (ip), vehicle: carboxymethylcellulose (CMC)) was 445 % of control and 454 % of control, the T/C (dose: 40.0 mg/kg/injection, schedule: Q01DX001 (ip), vehicle: Klucel (hydroxypropylcellulose) (HPC)) was 319 % of control and 381 % of control and the T/C (dose: 40.0 mg/kg/injection, schedule: Q01DX001 (ip), vehicle: carboxymethylcellulose (CMC)) was 418 % of control. For the same molecule, the T/C (dose: 51.0 mg/kg/injection, schedule: Q01DX001 (ip), vehicle: carboxymethylcellulose (CMC)) was 413 % of control and 476 % of control, the T/C (dose: 60.0 mg/kg/injection, schedule: Q01DX001 (ip), vehicle: Klucel (hydroxypropylcellulose) (HPC)) was 111 % of control and 202 % of control and the T/C (dose: 60.0 mg/kg/injection, schedule: Q01DX001 (ip), vehicle: carboxymethylcellulose (CMC)) was 102 % of control. For the same molecule, the T/C (dose: 77.0 mg/kg/injection, schedule: Q01DX001 (ip), vehicle: carboxymethylcellulose (CMC)) was 175 % of control and 258 % of control.

In the case of `CCOC(=O)N1NC(=O)CC1(C)C`, the T/C (dose: 100.0 mg/kg/injection, schedule: Q04DX003 (ip), vehicle: saline) is reported as 105 % of control, the T/C (dose: 200.0 mg/kg/injection, schedule: Q04DX003 (ip), vehicle: saline) is reported as 105 % of control and the T/C (dose: 400.0 mg/kg/injection, schedule: Q04DX003 (ip), vehicle: saline) is reported as 102 % of control.

In the case of `Nc1nc(N)c(CCCOc2cccc(Cl)c2Cl)c(N)n1`, the T/C (dose: 87.5 mg/kg/injection, schedule: Q01DX009 (ip), vehicle: Klucel (hydroxypropylcellulose) (HPC)) is reported as 95 % of control, the T/C (dose: 175.0 mg/kg/injection, schedule: Q01DX009 (ip), vehicle: Klucel (hydroxypropylcellulose) (HPC)) is reported as 88 % of control and the T/C (dose: 350.0 mg/kg/injection, schedule: Q01DX009 (ip), vehicle: Klucel (hydroxypropylcellulose) (HPC)) is reported as 106 % of control.

For `CCCCCC(C)(O)CCC` (stereo unspecified), the T/C (dose: 50.0 mg/kg/injection, schedule: Q01DX001 (ip), vehicle: saline) was 93 % of control, the T/C [11] was 93 % of control and the T/C [12] was 93 % of control.

`CC1C(C(C)(C)C)N1C` (stereo unspecified) was tested, and the T/C [5] was 108 % of control and the T/C [6] was 110 % of control.

`Cc1ncc(C#N)c(C)n1` was tested, and the T/C [11] was 107 % of control, the T/C [12] was 102 % of control and the T/C (dose: 400.0 mg/kg/injection, schedule: Q01DX001 (ip), vehicle: saline) was 107 % of control.

In the case of `CC1(CO)CCCC2(C)C3=C(CCCC3)CCC12` (stereo unspecified), the T/C (dose: 5.0 mg/kg/injection, schedule: Q01DX001 (ip), vehicle: other) is reported as 102 % of control, the T/C (dose: 10.0 mg/kg/injection, schedule: Q01DX001 (ip), vehicle: other) is reported as 96 % of control and the T/C (dose: 20.0 mg/kg/injection, schedule: Q01DX001 (ip), vehicle: other) is reported as 100 % of control. For the same molecule, the T/C (dose: 40.0 mg/kg/injection, schedule: Q01DX001 (ip), vehicle: other) was 98 % of control and the T/C (dose: 80.0 mg/kg/injection, schedule: Q01DX001 (ip), vehicle: other) was 98 % of control.

For `CCCC(C)OP(=O)(OCC)OCC` (stereo unspecified), the T/C [1] was 94 % of control and the T/C [2] was 100 % of control.

`CCn1c2ccccc2c2cc(N=Cc3ccc(N(CCCl)CCCl)cc3C)ccc21` was tested, and the T/C [7] was 103 % of control, the T/C [8] was 103 % of control and the T/C [9] was 117 % of control. For the same molecule, the T/C [10] was 100 % of control.

With `O=C(NN(c1ccccc1)c1cccc2ccccc12)c1ccccc1` the T/C [4] was 103 % of control, the T/C [1] was 103 % of control and the T/C [5] was 89 % of control. The T/C [2] was 97 % of control, the T/C [6] was 93 % of control and the T/C [3] was 100 % of control. For the same molecule, the T/C (dose: 400.0 mg/kg/injection, schedule: Q04DX003 (ip), vehicle: Klucel (hydroxypropylcellulose) (HPC)) was 94 % of control.

In the case of `Oc1ccc(F)c2cccnc12`, the T/C [7] is reported as 101 % of control.

With `CCOc1ccc(/C=C/C(=O)c2ccc(C)cc2)cc1OCC` the T/C (dose: 75.0 mg/kg/injection, schedule: Q04DX003 (ip), vehicle: saline) was 100 % of control, the T/C (dose: 150.0 mg/kg/injection, schedule: Q04DX003 (ip), vehicle: saline) was 102 % of control and the T/C (dose: 300.0 mg/kg/injection, schedule: Q04DX003 (ip), vehicle: saline) was 105 % of control.

For `CCC1C(=O)OC(=O)c2oc3ccc(Cl)cc3c21` (stereo unspecified), the T/C (dose: 100.0 mg/kg/injection, schedule: Q01DX001 (ip), vehicle: Klucel (hydroxypropylcellulose) (HPC)) was 100 % of control, the T/C (dose: 200.0 mg/kg/injection, schedule: Q01DX001 (ip), vehicle: Klucel (hydroxypropylcellulose) (HPC)) was 102 % of control and the T/C (dose: 400.0 mg/kg/injection, schedule: Q01DX001 (ip), vehicle: Klucel (hydroxypropylcellulose) (HPC)) was 94 % of control.

`CC(=O)Nc1ccc(/C=N/NC(=O)c2cccc3ccccc23)cc1` was tested, and the T/C [11] was 86 % of control.

`CCCCc1nc2c(O)ccc(O)c2nc1C` was tested, and the T/C (dose: 75.0 mg/kg/injection, schedule: Q01DX001 (ip), vehicle: other) was 93 % of control, the T/C (dose: 75.0 mg/kg/injection, schedule: Q04DX003 (ip), vehicle: other) was 101 % of control and the T/C (dose: 150.0 mg/kg/injection, schedule: Q01DX001 (ip), vehicle: other) was 88 % of control. The T/C (dose: 150.0 mg/kg/injection, schedule: Q04DX003 (ip), vehicle: other) was 104 % of control and the T/C (dose: 300.0 mg/kg/injection, schedule: Q01DX001 (ip), vehicle: other) was 87 % of control.

In the case of `O=C(OCC1OCC(OC(=O)c2ccccc2)C1OC(=O)c1ccccc1)c1ccccc1` (stereo unspecified), the T/C (dose: 100.0 mg/kg/injection, schedule: Q01DX001 (ip), vehicle: saline with Tween-80) is reported as 92 % of control and the T/C (dose: 200.0 mg/kg/injection, schedule: Q01DX001 (ip), vehicle: saline with Tween-80) is reported as 110 % of control.

With `Cc1ccc(C)c(NC(=O)Nc2ccccc2Cl)c1` the T/C (dose: 100.0 mg/kg/injection, schedule: Q01DX009 (ip), vehicle: gum acacia) was 90 % of control, the T/C (dose: 100.0 mg/kg/injection, schedule: Q04DX003 (ip), vehicle: gum acacia) was 93 % of control and the T/C (dose: 200.0 mg/kg/injection, schedule: Q01DX009 (ip), vehicle: gum acacia) was 90 % of control. For the same molecule, the T/C (dose: 200.0 mg/kg/injection, schedule: Q04DX003 (ip), vehicle: gum acacia) was 91 % of control, the T/C (dose: 400.0 mg/kg/injection, schedule: Q01DX009 (ip), vehicle: gum acacia) was 90 % of control and the T/C (dose: 400.0 mg/kg/injection, schedule: Q04DX003 (ip), vehicle: gum acacia) was 94 % of control.
